Activity calls are given as the source filed them.
Columns and labels:
[1] = target: G-protein coupled receptor 35 (Homo sapiens, UniProt Q9HC97); assay: GPR35 antagonists blocking zaprinast-driven arrestin recruitment, primary screen, imaging, U2OS, beta-arrestin-GFP, zaprinast agonist (AID 2058); type: functional;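 note: antagonist potency meaning inhibition of agonist-induced arrestin redistribution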
[2] = inhibitors of firefly luciferase expression or activity, dose response, H4 neuroglioma cells, luminescence (AID 1990); type: functional, cell-based
[3] = system: BJ; assay: cytotoxicity toward BJ-TERT fibroblasts, dose response, cell-based, RAS-independent, luminescence (AID 1933); type: functional; conditions: Homo sapiens
[4] = Luminescence Cell-Based Dose Response HTS to Identify Inhibitors of 5'UTR Stem-Loop Driven Prion Protein mRNA Translation in H4 Neuroglioblastoma Cells. [Related pubchem assays: 1827 (Project Summary), 1813 (Primary HTS)]; type: functional
[5] = inhibitors of SNCA 5'UTR-driven reporter translation, confirmation, H4 neuroglioma cells, luminescence (AID 1988); type: functional, cell-based
[6] = system: BJ; assay: cells; type: functional, cell-based; conditions: Homo sapiens
[7] = inhibitors of intracellular T. cruzi replication, confirmation, NIH3T3 host cells, beta-gal luminescence (AID 2044); type: functional, cell-based;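 note: intracellular parasites grown in NIH/3T3 mouse fibroblasts as host cells; luminescent beta-galactosidase reporter signal from transgenic T. cruzi replicating inside host cells; inhibitors lower the luminescence signal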
[8] = cytotoxicity toward NIH3T3 fibroblasts, dose response, counter-screen, cell-based, ATP luminescence, mouse fibroblasts (AID 2010); type: functional;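 note: cells exposed to compound for about 90 hours before reading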
[9] = target: Sphingosine 1-phosphate receptor 4 (Homo sapiens, UniProt O95977); assay: Fluorescence dose response cell-based high throughput screening assay for antagonists of the Sphingosine 1-Phosphate Receptor 4 (S1P4). [Related pubchem assays: 1524 (Confirmation in triplicates.), 1510 (Primary screen.)]; type: functional
[10] = system: BJ; assay: cytotoxicity toward BJ-TERT-LT-ST fibroblasts, dose response, cell-based, RAS-independent, luminescence (AID 1935); type: functional; conditions: Homo sapiens;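 note: BJ fibroblasts immortalized with TERT plus LT and ST oncogenes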
[11] = cytotoxicity toward DRD oncogenic fibroblasts, dose response, cell-based, non-viral oncogenic, luminescence (AID 1934); type: functional; conditions: Homo sapiens
[12] = target: Sphingosine 1-phosphate receptor 1 (Homo sapiens, UniProt P21453); type: functional;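 note: Tango beta-arrestin reporter U2OS cells stimulated with S1P near its EC80; inhibitor potency meaning antagonism of receptor activation by the natural agonist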
[13] = target: G-protein coupled receptor 55 (Homo sapiens, UniProt Q9Y2T6); assay: GPR55 agonists via beta-arrestin recruitment, primary screen, imaging, U2OS cells, beta-arrestin-GFP redistribution (AID 1961); type: functional
[14] = target: T1, Microphthalmia-associated transcription factor (Homo sapiens, UniProt O75030); assay: TRPM1 promoter luciferase signal decrease, dose response, MITF inhibitor project, cell-based, SK-MEL-5, cherry-picked, set 3 (AID 493073); type: functional
T1 sequence (O75030 whole entry): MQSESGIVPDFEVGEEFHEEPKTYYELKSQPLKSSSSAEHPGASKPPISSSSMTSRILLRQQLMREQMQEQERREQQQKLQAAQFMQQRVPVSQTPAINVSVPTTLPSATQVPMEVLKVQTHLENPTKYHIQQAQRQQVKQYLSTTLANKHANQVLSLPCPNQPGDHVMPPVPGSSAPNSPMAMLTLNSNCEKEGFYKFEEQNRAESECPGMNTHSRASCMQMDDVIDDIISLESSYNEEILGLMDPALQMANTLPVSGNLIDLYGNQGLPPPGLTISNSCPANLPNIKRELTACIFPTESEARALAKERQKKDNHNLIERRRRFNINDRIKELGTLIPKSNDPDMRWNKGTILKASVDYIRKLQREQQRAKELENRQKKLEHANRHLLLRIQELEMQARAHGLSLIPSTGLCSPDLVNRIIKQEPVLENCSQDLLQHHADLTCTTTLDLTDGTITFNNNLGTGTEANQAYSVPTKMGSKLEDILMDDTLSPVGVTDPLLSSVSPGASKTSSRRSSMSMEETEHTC

[15] = target: T2, High affinity choline transporter 1 (Homo sapiens, UniProt Q9GZV3); assay: CHT inhibitors, dose response, cell-based, 5-point CRC, membrane potential dye (AID 504840); type: functional
T2 sequence (Q9GZV3 whole entry): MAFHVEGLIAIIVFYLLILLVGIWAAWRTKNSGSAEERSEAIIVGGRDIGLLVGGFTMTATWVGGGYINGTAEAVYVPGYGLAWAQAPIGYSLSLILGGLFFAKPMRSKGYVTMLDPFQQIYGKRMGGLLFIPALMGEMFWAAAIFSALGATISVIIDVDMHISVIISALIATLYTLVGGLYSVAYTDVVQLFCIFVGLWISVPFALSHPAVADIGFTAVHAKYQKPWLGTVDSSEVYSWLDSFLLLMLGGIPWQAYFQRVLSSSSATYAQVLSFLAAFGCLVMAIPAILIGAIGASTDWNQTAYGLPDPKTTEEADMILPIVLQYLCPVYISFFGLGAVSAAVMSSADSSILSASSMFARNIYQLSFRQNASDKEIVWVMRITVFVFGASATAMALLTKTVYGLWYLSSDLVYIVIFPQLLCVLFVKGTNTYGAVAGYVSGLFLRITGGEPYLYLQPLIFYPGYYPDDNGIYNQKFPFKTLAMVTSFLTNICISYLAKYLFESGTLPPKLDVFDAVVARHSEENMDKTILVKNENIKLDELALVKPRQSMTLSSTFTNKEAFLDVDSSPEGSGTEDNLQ

[16] = system: INS1; assay: beta cell apoptosis inhibitors, cytokine rescue, dose response, luminescence, retest (AID 449756); type: functional, cell-based; conditions: Rattus norvegicus;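 note: cell death triggered by IL-1 beta plus TNF-alpha plus IFN-gamma mixture; protective hits raise ATP signal compared with cytokine alone wells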
[17] = target: T2, High affinity choline transporter 1; assay: CHT inhibitors, dose response, cell-based, 10-point CRC, membrane potential dye (AID 588401); type: functional;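 note: membrane potential dye fluorescence of choline-evoked depolarization via CHT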
[18] = system: A-375; assay: A375 melanoma cell viability reduction, dose response, counter-screen for MITF modulator project, cherry-pick samples, set 2 (AID 540335); type: functional, cell-based; conditions: Homo sapiens
[19] = Shn3 3'UTR reporter inhibitors, dose response, cell-based, Clone20 osteoblasts, firefly luciferase, cherry-picked (AID 624132); type: functional;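 note: firefly luciferase luminescence from reporter carrying the Shn3 3'UTR in osteoblasts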
[20] = HepG2 cell cytotoxicity, dose response, cytotoxicity control for Shn3 inhibitor project, CellTiter-Glo, cherry-picked (AID 624134); type: functional, cell-based
[21] = control 3'UTR Renilla luciferase suppression, dose response, counter-screen for Shn3 inhibitor project, cell-based, Clone20-Shn3RL, cherry-picked (AID 624133); type: functional
[22] = target: Melanin-concentrating hormone receptor 1 (Homo sapiens, UniProt Q99705); assay: Late-stage fluorescence-based counterscreen for antagonists of the G-protein coupled receptor 7 (GPR7): cell-based dose response assay to identify antagonists of the melanin-concentrating hormone receptor 1 (MCHR1) Set 6.; type: functional
[23] = target: Neuropeptides B/W receptor type 1 (Homo sapiens, UniProt P48145); assay: GPR7 antagonist potency, late-stage follow-up, cell-based, fluorescence, dose response, set 6 (AID 588583); type: functional
Chain of Neuropeptides B/W receptor type 1 (P48145 whole entry): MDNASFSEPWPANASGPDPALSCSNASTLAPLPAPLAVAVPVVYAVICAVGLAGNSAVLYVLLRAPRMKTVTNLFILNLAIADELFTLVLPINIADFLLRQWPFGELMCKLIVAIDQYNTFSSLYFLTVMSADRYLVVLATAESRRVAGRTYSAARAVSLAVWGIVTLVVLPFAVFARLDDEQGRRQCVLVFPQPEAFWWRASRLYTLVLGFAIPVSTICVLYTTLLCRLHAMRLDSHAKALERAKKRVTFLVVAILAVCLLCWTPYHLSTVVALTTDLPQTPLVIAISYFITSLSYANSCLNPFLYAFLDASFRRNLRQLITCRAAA

Chain of Sphingosine 1-phosphate receptor 4 (O95977 whole entry): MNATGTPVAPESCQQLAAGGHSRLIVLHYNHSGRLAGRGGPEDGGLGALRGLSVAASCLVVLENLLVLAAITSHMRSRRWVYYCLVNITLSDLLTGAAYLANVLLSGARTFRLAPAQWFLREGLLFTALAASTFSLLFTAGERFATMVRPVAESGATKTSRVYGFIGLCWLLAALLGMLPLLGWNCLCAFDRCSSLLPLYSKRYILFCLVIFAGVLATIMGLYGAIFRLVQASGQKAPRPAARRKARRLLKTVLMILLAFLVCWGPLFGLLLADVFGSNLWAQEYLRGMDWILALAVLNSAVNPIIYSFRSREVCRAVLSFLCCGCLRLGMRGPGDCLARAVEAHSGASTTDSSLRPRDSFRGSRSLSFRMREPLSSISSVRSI
Chain of Sphingosine 1-phosphate receptor 1 (P21453 whole entry): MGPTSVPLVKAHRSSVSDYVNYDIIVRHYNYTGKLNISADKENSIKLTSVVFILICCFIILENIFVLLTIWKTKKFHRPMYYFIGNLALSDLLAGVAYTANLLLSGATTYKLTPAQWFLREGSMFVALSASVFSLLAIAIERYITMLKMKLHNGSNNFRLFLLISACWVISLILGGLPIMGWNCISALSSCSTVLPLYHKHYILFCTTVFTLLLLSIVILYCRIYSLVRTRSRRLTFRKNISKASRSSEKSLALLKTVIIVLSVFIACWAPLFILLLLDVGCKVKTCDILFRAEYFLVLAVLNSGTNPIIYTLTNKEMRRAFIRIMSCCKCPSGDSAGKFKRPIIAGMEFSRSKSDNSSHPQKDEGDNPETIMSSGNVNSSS
Chain of G-protein coupled receptor 55 (Q9Y2T6 whole entry): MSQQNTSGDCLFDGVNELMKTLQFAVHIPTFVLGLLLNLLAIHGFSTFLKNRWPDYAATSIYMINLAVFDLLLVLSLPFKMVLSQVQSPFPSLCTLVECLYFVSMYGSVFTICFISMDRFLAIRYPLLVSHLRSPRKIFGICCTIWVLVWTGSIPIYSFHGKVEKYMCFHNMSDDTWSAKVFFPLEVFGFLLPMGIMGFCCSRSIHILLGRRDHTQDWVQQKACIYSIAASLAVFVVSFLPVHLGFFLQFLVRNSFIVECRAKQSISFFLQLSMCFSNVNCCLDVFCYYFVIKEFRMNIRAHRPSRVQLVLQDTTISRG
Chain of Melanin-concentrating hormone receptor 1 (Q99705 whole entry): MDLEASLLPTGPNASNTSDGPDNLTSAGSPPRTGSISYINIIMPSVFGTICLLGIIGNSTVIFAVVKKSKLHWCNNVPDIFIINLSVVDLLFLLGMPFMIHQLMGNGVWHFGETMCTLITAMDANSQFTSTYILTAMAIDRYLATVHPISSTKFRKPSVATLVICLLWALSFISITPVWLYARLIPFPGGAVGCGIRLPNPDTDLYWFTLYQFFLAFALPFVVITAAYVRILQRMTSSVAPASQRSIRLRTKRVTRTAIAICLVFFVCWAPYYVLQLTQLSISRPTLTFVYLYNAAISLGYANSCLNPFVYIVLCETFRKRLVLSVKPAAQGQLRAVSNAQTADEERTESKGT
Chain of G-protein coupled receptor 35 (Q9HC97 whole entry): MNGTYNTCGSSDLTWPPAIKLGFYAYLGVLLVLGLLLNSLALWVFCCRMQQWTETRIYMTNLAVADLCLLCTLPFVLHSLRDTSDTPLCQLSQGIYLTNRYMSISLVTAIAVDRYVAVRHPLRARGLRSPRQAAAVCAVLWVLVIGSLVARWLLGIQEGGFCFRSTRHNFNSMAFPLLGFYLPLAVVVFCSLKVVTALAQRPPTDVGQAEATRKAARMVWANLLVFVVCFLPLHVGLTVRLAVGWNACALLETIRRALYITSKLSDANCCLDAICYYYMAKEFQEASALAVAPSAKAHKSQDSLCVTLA

## CC1=CC2/C=C(\C)CCC(O)C(O)/C=C/C(=O)C23C(=O)NC(CC(C)C)C3C1C (stereo not drawn)
[1]
  IC50: 3.06 µM (active)
[2]
  EC50: > 120 µM (not active)
[3]
  EC50: 4.94 µM (active)
[4]
  EC50: 8.86 µM (active)
[5]
  EC50: 9.67 µM (active)
[6]
  EC50: 6.51 µM (active)
[7]
  EC50: 4.09 µM (active)
[8]
  EC50: 4.73 µM (active)
[9]
  IC50: 0.648 µM (active)
[10]
  EC50: 4.8 µM (inconclusive)
[11]
  EC50: 4.94 µM (inconclusive)
[12]
  IC50: 17.6 µM (not active)
[13]
  EC50: > 32 µM (inactive)
[14]
  AC50: 6.58 µM (active)
[15]
  IC50: 4.38 µM (active)
[16]
  AC50: 6.6 µM (active)
[17]
  IC50: 3.16 µM (active)
[18]
  AC50: 10.4 µM (active)
[19]
  AC50: 5.29 µM (active)
[20]
  AC50: 8.15 µM (active)
[21]
  AC50: 6.91 µM (active)

## N#CC(Cc1ccccc1)c1c(Cl)cnn(Cc2cccc3ccccc23)c1=O (stereo not drawn)
[22]
  IC50: ~2.06 µM (active)
[23]
  IC50: ~2.06 µM (active)
